The IC50 is the concentration that gives 50% inhibition.

Data on 18 compounds can be found in US20250368624A1, “M24B AMINOPEPTIDASE INHIBITORS FOR CARD8 INFLAMMASOME ACTIVATION” (Memorial Sloan-Kettering Cancer Center, priority 2022, published 2025).

The target of one data set is XPNPEP1 (Homo sapiens (Human), UniProt Q9NQW7). Nature of the data set: XPNPEP1 substrate assay (H-Lys(abz)-Pro-Pro-pNA). It counts as biochemical. The following applies: for IC50: XPNPEP1 3.5 nM, substrate 100 μM, 60 mins. The method, then:
Protein purification. Human prolidase (PEPD) was generated and purified. XPNPEP1 in pET15-b containing a 6× His tag was expressed in E. coli Rosetta DE3 cells. Cells were induced with IPTG for 16 h at 37° C., pelleted and lysed in buffer A (20 mM Tris-HCl (pH 7.9), 500 mM NaCl, and 10% (v/v) glycerol) by sonication. Affinity purification chromatography was performed using TALON resin and according to previously published protocols (Li et al., 2008).
(§1) Substrate assays. For the PEPD assay, a solution of substrate (Ala-Pro) was prepared in DMSO. 24 μL of 50 nM recombinant human PEPD were added to a 384-well, black, clear-bottom plate (Corning) with 1 μL dipeptide Ala-Pro (final conc. 40 μM). Alanine liberated was measured as increasing fluorescence signal (Resorufin, Ex/Em: 535/587 nm) recorded at 25° C. using an L-alanine assay kit (Abcam, ab83394) at 25° C. according to manufacturer's instructions. For the AMC reporter assays, experiments were performed with cell lysates. 5 μL solution of substrate (2.5 mM Ala-AMC) was added the mixture of 10 μL HEK293T cell lysates (2.5 mg/ml) and 10 μL of indicated compounds in a 384-well, black, clear-bottom plate (Corning) to initiate the reaction. Substrate cleavage was measured as increasing fluorescence signal (Ex/Em: 380/460 nm) recorded at 25° C. for 20 mins. For XPNPEP1 enzymes (XPNPEP1 3.5 nM) were plated on a black 384-well clear bottom plate and treated with the indicated doses of compounds. H-Lys(abz)-Pro-Pro-pNA substrate was added to a final concentration of 100 μM, and fluorescence was monitored (Ex/Em: 320/410) for 60 mins.

The subject of another data set is MV4;11 CASP1-/- cells. Kind of data set: CellTiter-Glo cell viability, CASP1-/- MV4;11 cells. Type of data set: cell-based. Conditions: 24 h, CTG; for CASP1-independent cell death: WT and CASP1-/- MV4;11 cells. On the procedure:
Cloning. CASP1^−/− MV4;11 cells^12; CARD8^−/− MV4;11, THP-1, OCI-AML2 cells^14; DPP8/9^−/− THP-1^12; PEPD^−/−, XPNPEP1^−/−, PEPD XPNPEP1^−/− THP-1 cells were generated. Plasmids for CARD8 variants, CASP1, GSDMD, dTAG-CARD8^ZUC were cloned as described previously (Hollingsworth et al., 2021; Johnson et al., 2018; Sharif et al., 2021).
(§2) CellTiter-Glo cell viability and CytoTox-Fluor cell death assays. Cells were plated (2,000 cells per well) in white, 384-well clear-bottom plates (Corning) using an EL406 Microplate Washer/Dispenser (BioTek) in 25 μL final volume of medium. To the cell plates were added compounds at different concentrations using a pintool (CyBio) and the plates were allowed to incubate in the incubator. After incubation for indicated times, CytoTox-Fluor reagent (Promega, G9262) was added according to the manufacturer's protocol. The assay plates were then incubated for another 30 min before fluorescence was recorded using a Cytation 5 Cell Imaging Multi-Mode Reader (BioTek). Next, CellTiter-Glo reagent (Promega, G7573) was subsequently added to the assay plates following the manufacturer's protocol. Assay plates were shaken on an orbital shaker for 2 min and incubated at 25° C. for 10 min. Luminescence was then read using a Cytation 5 Cell Imaging Multi-Mode Reader (BioTek).
Background: ATP-based viability assays read luminescence as a measure of living cells.

A further data set has as its system MV4;11 WT cells. Nature of the data set: CellTiter-Glo cell viability, WT MV4;11 cells. Type of data set: cell-based. The following applies: for IC50 / cytotoxicity to MV4;11 cells (in words): 24 h, CTG. On the procedure: as §2
Another data set addresses recombinant human PEPD (Homo sapiens (Human), UniProt P12955). Kind of data set: PEPD substrate assay (Ala-Pro cleavage, L-alanine assay kit). Type of data set: biochemical. Conditions: for IC50: 50 nM recombinant human PEPD, Ala-Pro 40 μM, 25° C. On the procedure:
Protein purification. Human prolidase (PEPD) was generated and purified. XPNPEP1 in pET15-b containing a 6× His tag was expressed in E. coli Rosetta DE3 cells.
as §1, with “Alanine liberated was measured as increasing fluorescence signal (Resorufin, Ex/Em: 535/587 nm) recorded at 25° C. using an L-alanine assay kit (Abcam, ab83394) at 25° C. according to manufacturer's instructions.” left out, “For XPNPEP1 enzymes (XPNPEP1 3.5 nM) were plated on a black 384-well clear bottom plate and treated with the indicated doses of compounds.” left out

XPNPEP1, sequence (Q9NQW7 whole entry): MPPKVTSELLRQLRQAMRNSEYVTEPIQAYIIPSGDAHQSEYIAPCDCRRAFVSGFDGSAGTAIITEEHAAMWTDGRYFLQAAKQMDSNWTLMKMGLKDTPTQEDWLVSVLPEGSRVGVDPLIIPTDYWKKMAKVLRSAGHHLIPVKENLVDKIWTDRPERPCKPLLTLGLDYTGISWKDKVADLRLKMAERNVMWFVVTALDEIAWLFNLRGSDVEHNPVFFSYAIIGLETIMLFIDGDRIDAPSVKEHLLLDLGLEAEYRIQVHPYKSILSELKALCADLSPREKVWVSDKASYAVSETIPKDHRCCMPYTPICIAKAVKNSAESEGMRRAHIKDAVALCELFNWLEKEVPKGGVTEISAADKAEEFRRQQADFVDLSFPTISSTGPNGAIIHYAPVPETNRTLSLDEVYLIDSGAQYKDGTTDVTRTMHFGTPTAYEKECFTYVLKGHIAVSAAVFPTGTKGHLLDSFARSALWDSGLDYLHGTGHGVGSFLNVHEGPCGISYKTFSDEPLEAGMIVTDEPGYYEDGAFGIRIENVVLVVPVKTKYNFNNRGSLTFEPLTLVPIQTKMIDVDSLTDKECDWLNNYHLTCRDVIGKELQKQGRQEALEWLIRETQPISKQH
recombinant human PEPD, sequence (P12955 whole entry): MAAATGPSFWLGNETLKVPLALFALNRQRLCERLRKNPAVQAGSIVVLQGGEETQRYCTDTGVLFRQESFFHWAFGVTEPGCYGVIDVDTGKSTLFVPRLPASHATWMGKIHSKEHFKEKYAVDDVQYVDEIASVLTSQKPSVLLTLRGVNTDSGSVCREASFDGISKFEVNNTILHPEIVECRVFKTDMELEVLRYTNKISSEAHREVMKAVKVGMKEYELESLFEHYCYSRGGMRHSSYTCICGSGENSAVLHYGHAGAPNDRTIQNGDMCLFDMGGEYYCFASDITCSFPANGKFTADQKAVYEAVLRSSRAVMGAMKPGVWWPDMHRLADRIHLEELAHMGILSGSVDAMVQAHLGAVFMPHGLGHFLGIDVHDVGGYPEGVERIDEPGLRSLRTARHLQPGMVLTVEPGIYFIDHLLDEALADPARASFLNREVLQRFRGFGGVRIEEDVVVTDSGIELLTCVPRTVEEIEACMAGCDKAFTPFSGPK

As for `C[C@H](NC(=O)[C@@H]1CCCN1C(=O)[C@@H]1CCCN1C(=O)[C@@H](O)[C@H](N)Cc1ccccc1)C(N)=O` [Apstatin, apstatin, reference compound], the IC50 against XPNPEP1 is 18 µM; in the data set with MV4;11 CASP1-/- cells, greater than 20 µM; in the data set on MV4;11 WT cells, greater than 20 µM. Further, in the data set on MV4;11 WT cells, the “cytotoxicity to MV4;11 cells (in words)” value is reported as “not cytotoxic at all”.
On to `COC(=O)[C@@H]1C[C@H](O)CN1C(=O)[C@@H](O)[C@H](N)CC(C)C` [CQ39, Methyl (2S,4S)-1-((2S,3R)-3-amino-2-hydroxy-5-methylhexanoyl)-4-hydroxypyrrolidine-2-carboxylate], for which the IC50 was 190 µM against XPNPEP1 and greater than 100 µM on recombinant human PEPD. Moreover, the “overall activity (PEPD/XPNPEP1 inhibition and cytotoxicity, Table 6 and FIG. 2), in words” value with MV4;11 WT cells is “completely inactive”.
Take `COC(=O)[C@@H]1CCCN1C(=O)[C@@H](O)[C@H](N)C12CC3CC(CC(C3)C1)C2` [CQ47, Methyl ((2S,3R)-3-(adamantan-1-yl)-3-amino-2-hydroxypropanoyl)-L-prolinate]: the IC50 against XPNPEP1 came to 33 µM; on recombinant human PEPD, 12 µM. In addition, the “cytotoxicity to MV4;11 cells (in words)” value in the data set on MV4;11 WT cells is “almost completely inactive”.
As to `CC(C)C[C@@H](N)[C@H](O)C(=O)N1CCC[C@H]1C(N)=O` [CQ49, (S)-1-((2S,3R)-3-amino-2-hydroxy-5-methylhexanoyl)pyrrolidine-2-carboxamide], the results for the IC50 on XPNPEP1 and at recombinant human PEPD were 53 µM and 0.28 µM, respectively. In addition, the “overall activity (PEPD/XPNPEP1 inhibition and cytotoxicity, Table 6 and FIG. 2), in words” value in the data set on MV4;11 WT cells was “retained similar PEPD/XPNPEP1 inhibition and cytotoxicity as CQ31”.
Consider `COC(=O)[C@H](C)NC(=O)[C@@H]1CCCN1C(=O)[C@@H]1CCCN1C(=O)[C@@H](O)[C@H](N)CC(C)C` [CQ50, Methyl ((2S,3R)-3-amino-2-hydroxy-5-methylhexanoyl)-L-prolyl-L-prolyl-L-alaninate], for which the IC50 on XPNPEP1 is 8.1 µM; in the data set on MV4;11 CASP1-/- cells (Homo sapiens, MV4-11), greater than 100 µM; in the data set with MV4;11 WT cells (Homo sapiens, MV4-11) it was 35 µM; on recombinant human PEPD, 11 µM.
Regarding `COC(=O)[C@H](CC(C)C)NC(=O)[C@@H](O)[C@H](N)CC(C)C` [CQ52, Methyl ((2S,3R)-3-amino-2-hydroxy-5-methylhexanoyl)-L-leucinate], on XPNPEP1, the “XPNPEP1 inhibition (in words)” value is “very weak PEPD and XPNPEP1 inhibitors”; the IC50 was 57 µM. In addition, the CASP1-independent cell death result in the data set on MV4;11 CASP1-/- cells was “triggered CASP1-independent cell death”. For the same compound, at recombinant human PEPD, the “PEPD inhibition (in words)” value was “very weak PEPD and XPNPEP1 inhibitors”; the IC50 worked out at 51 µM.
In the case of `CC(C)C[C@@H](N)[C@H](O)C(=O)N1CCC[C@H]1CNS(C)(=O)=O` [CQ53, N—(((S)-1-((2S,3R)-3-amino-2-hydroxy-5-methylhexanoyl)pyrrolidin-2-yl)methyl)methanesulfon-amide], the IC50 against XPNPEP1 was 12 µM; on recombinant human PEPD it was greater than 100 µM. Also, in the data set on MV4;11 WT cells, the “cytotoxicity to MV4;11 cells (in words)” value was “inactive in cells”.
`CONC(=O)[C@@H]1CCCN1C(=O)[C@@H](O)[C@H](N)CC(C)C` [CQ55, (S)-1-((2S,3R)-3-amino-2-hydroxy-5-methylhexanoyl)-N-methoxypyrrolidine-2-carboxamide]: the IC50 at XPNPEP1 came to 303 µM; at recombinant human PEPD it was 1.6 µM. For the same compound, the “cytotoxicity to MV4;11 cells (in words)” value with MV4;11 WT cells is “inactive in cells”.
Consider `COC(=O)[C@@H]1CCCN1C(=O)[C@@H](O)[C@H](N)C1CC1` [CQ62, Methyl ((2S,3R)-3-amino-3-cyclopropyl-2-hydroxypropanoyl)-L-prolinate], for which the IC50 came out at 66 µM against XPNPEP1 and 4.2 µM on recombinant human PEPD. Besides, the “cytotoxicity to MV4;11 cells (in words)” value in the data set with MV4;11 WT cells was “almost completely inactive”.
Consider `COC(=O)[C@H](Cc1ccccc1)NC(=O)[C@@H](O)[C@H](N)CC(C)C` [CQ72, Methyl ((2S,3R)-3-amino-2-hydroxy-5-methylhexanoyl)-L-phenylalaninate], for which, at XPNPEP1, the “XPNPEP1 inhibition (in words)” value is “very weak PEPD and XPNPEP1 inhibitors”; the midpoint of inhibition, the IC50, lay at 96 µM. In addition, the CASP1-independent cell death entry with MV4;11 CASP1-/- cells was “triggered CASP1-independent cell death”. At recombinant human PEPD, the “PEPD inhibition (in words)” value was “very weak PEPD and XPNPEP1 inhibitors”; the concentration for half-maximal inhibition (IC50) was greater than 100 µM.
As for `COC(=O)[C@@H]1CCCN1C(=O)[C@@H](O)[C@H](N)CCCCO` [CQ75], the IC50 stood at 115 µM against XPNPEP1 and 0.3 µM on recombinant human PEPD. For the same compound, in the data set with MV4;11 WT cells, the “cytotoxicity to MV4;11 cells (in words)” value is reported as “lost cytotoxicity”. For the same compound, the “PEPD inhibition (in words)” value on recombinant human PEPD is recorded as “retained PEPD inhibition”.
Take `CC(C)C[C@@H](N)[C@H](O)C(=O)N1CCCC1` [CQ76, (2S,3R)-3-amino-2-hydroxy-5-methyl-1-(pyrrolidin-1-yl)hexan-1-one]: the IC50 at XPNPEP1 was 38 µM; at recombinant human PEPD, greater than 100 µM. The “overall activity (PEPD/XPNPEP1 inhibition and cytotoxicity, Table 6 and FIG. 2), in words” value with MV4;11 WT cells was “abrogated all activity”.
As to `COC(=O)[C@H](Cc1ccccc1)NC(=O)[C@@H]1CCCN1C(=O)[C@@H](O)[C@H](N)CC(C)C` [CQ79, Methyl ((2S,3R)-3-amino-2-hydroxy-5-methylhexanoyl)-L-prolyl-L-phenylalaninate], the IC50 at XPNPEP1 is 48 µM; with MV4;11 CASP1-/- cells (Homo sapiens, MV4-11), greater than 20 µM; in the data set on MV4;11 WT cells (Homo sapiens, MV4-11), 0.66 µM; on recombinant human PEPD it was 0.72 µM.
Take `CC[C@H](C)[C@H](NC(=O)[C@@H]1CCCN1C(=O)[C@@H](O)[C@H](N)CC(C)C)C(=O)OC` [CQ81, Methyl ((2S,3R)-3-amino-2-hydroxy-5-methylhexanoyl)-L-prolyl-L-isoleucinate]: the IC50 is 23 µM at XPNPEP1; greater than 20 µM with MV4;11 CASP1-/- cells (Homo sapiens, MV4-11); 0.6 µM in the data set on MV4;11 WT cells (Homo sapiens, MV4-11); 0.84 µM at recombinant human PEPD.
As for `CC(C)C[C@@H](N)[C@H](O)C(=O)N1CCC[C@H]1C(=O)OC1CCCC1` [CQ94, Cyclopentyl ((2S,3R)-3-amino-2-hydroxy-5-methylhexanoyl)-L-prolinate], the “XPNPEP1 inhibition (in words)” value on XPNPEP1 was “inhibited PEPD and XPNPEP1 inhibitors similarly”. In addition, the “cytotoxicity to MV4;11 cells (in words)” value with MV4;11 WT cells was “slightly more toxic”. For the same compound, the “PEPD inhibition (in words)” value on recombinant human PEPD was “inhibited PEPD and XPNPEP1 inhibitors similarly”.
Take `CC(C)CCNC(=O)[C@@H]1CCCN1C(=O)[C@@H](O)[C@H](N)CC(C)C` [CQ95, (S)-1-((2S,3R)-3-amino-2-hydroxy-5-methylhexanoyl)-N-isopentylpyrrolidine-2-carboxamide]: the IC50 turned out to be 140 µM against XPNPEP1 and 0.29 µM at recombinant human PEPD. In addition, the “overall activity (PEPD/XPNPEP1 inhibition and cytotoxicity, Table 6 and FIG. 2), in words” value in the data set on MV4;11 WT cells is “retained similar PEPD/XPNPEP1 inhibition and cytotoxicity as CQ31”.
With `CC(C)C[C@@H](N)[C@H](O)C(=O)N1CCC[C@H]1c1nnn[nH]1` [CQ99, (2S,3R)-1-((S)-2-(1H-tetrazol-5-yl)pyrrolidin-1-yl)-3-amino-2-hydroxy-5-methylhexan-1-one], the IC50 against XPNPEP1 worked out at 67 µM; at recombinant human PEPD, 6.2 µM. In addition, in the data set with MV4;11 WT cells, the “cytotoxicity to MV4;11 cells (in words)” value was “inactive in cells”.
Regarding `COC(=O)[C@H](CC(C)C)NC(=O)[C@@H](O)[C@H](N)Cc1ccccc1` [MeBs, bestatin methyl ester, reference compound], the CASP1-independent cell death entry in the data set on MV4;11 CASP1-/- cells is recorded as “CASP1-independent cell death”.
